# Measurements published in ChEMBL document CHEMBL1799998, “Exploration of antimicrobial and antioxidant potential of newly synthesized 2,3-disubstituted quinazoline-4(3H)-ones” (Bioorg Med Chem Lett, 2011).
# Experiments:
# Type in all cases: functional
# [1] = test system: Staphylococcus aureus; test: Antimicrobial activity against Staphylococcus aureus after 24 hrs by disc diffusion method; further: test concentration or dose not given here
# [2] = test system: Bacillus subtilis; test: Antimicrobial activity against Bacillus subtilis after 24 hrs by disc diffusion method; further: test concentration or dose not given here
# [3] = test system: Pseudomonas aeruginosa; test: Antimicrobial activity against Pseudomonas aeruginosa after 24 hrs by disc diffusion method; further: test concentration or dose not given here
# [4] = test system: Radical scavenging activity; test: Antioxidant activity against DPPH free radical assessed as compound able to consume half the initial amount of DPPH free radical by spectrophotometry; conditions: TDE = time-dependent effect
# [5] = test system: Radical scavenging activity; test: Antioxidant activity against DPPH free radical assessed as compound able to consume half the initial amount of DPPH free radical after 30 to 60 mins by spectrophotometry
# [6] = test system: Escherichia coli; test: Antimicrobial activity against Escherichia coli after 24 hrs by disc diffusion method; further: test concentration or dose not given here
SMILES,inhibition zone (IZ) [1],inhibition zone (IZ) [2],inhibition zone (IZ) [3],Activity [4],Activity [5],IC50 [5],inhibition zone (IZ) [6]
CC1=NC(=S)N(n2c(CCl)nc3ccccc3c2=O)C(=O)C1/N=N/c1ccc(O)c([N+](=O)[O-])c1 (centres undefined),29 mm,20 mm,12 mm,tde,Dose-dependent effect,8.6 µM,14 mm
CC1=NC(=S)N(n2c(CCl)nc3ccccc3c2=O)C(=O)C1/N=N/c1ccc(O)cc1 (centres undefined),27 mm,18.5 mm,10 mm,tde,Dose-dependent effect,5.4 µM,13.5 mm
CC1=NC(=S)N(n2c(CCl)nc3ccccc3c2=O)C(=O)C1/N=N/c1ccc(Cl)cc1O (centres undefined),33 mm,29 mm,18.5 mm,tde,Dose-dependent effect,7 µM,20.5 mm
COc1ccc(/N=N/C2C(=O)N(n3c(CCl)nc4ccccc4c3=O)C(=S)N=C2C)cc1O (centres undefined),47.5 mm,42.1 mm,28 mm,tde,Dose-dependent effect,3 µM,30 mm
CC1=NC(=S)N(n2c(CCl)nc3ccccc3c2=O)C(=O)C1/N=N/c1cccc(C)c1O (centres undefined),44.5 mm,36.5 mm,23.5 mm,tde,Dose-dependent effect,3.5 µM,27.5 mm
CC1(C)S[C@@H]2[C@H](NC(=O)[C@H](N)c3ccccc3)C(=O)N2[C@H]1C(=O)O [AMPICILLIN],36 mm,40 mm,20 mm,,,,28 mm
O=C1O[C@H]([C@@H](O)CO)C(O)=C1O [ASCORBIC ACID],,,,,,9.2 µM,
CC1=NC(=S)N(n2c(CCl)nc3ccccc3c2=O)C(=O)C1/N=N/c1ccc(O)cc1O (centres undefined),30 mm,24.5 mm,13.5 mm,tde,Dose-dependent effect,2.1 µM,15.5 mm
CC1=NC(=S)N(n2c(CCl)nc3ccccc3c2=O)C(=O)C1/N=N/c1ccccc1 (centres undefined),24.5 mm,16.2 mm,7 mm,tde,Dose-dependent effect,,11.5 mm
CC1=NC(=S)N(n2c(CCl)nc3ccccc3c2=O)C(=O)C1/N=N/c1cccc(Cl)c1O (centres undefined),33.5 mm,31.5 mm,21.5 mm,tde,Dose-dependent effect,8.3 µM,20.9 mm
CC1=NC(=S)N(n2c(CCl)nc3ccccc3c2=O)C(=O)C1/N=N/c1ccc(C)cc1O (centres undefined),39 mm,33 mm,22 mm,tde,Dose-dependent effect,5.1 µM,25 mm
CC1=NC(=S)N(n2c(CCl)nc3ccccc3c2=O)C(=O)C1/N=N/c1ccc(O)c(O)c1 (centres undefined),31.5 mm,27 mm,16 mm,tde,Dose-dependent effect,1.4 µM,17.5 mm
